# Measurements: patent US6682908B1, “Mouse growth hormone secretagogue receptor” (Merck & Co., Inc., priority 1998, dated 2004)
# Target: T1, mouse GHS-R (Mus musculus, UniProt Q99P50)
# T1 construct: the complete and contiguous open reading frame of mGHS-R; expressed in transfected cells; host or cells: 293-AEQ17 (aequorin-expressing reporter cell line), transiently transfected with pcDNA-3/mouse GHS-R
# Test: aequorin bioluminescence assay of mouse GHS-R expressed in 293-AEQ17 cells
# Type: cell-based
# Details: expression of the complete and contiguous open reading frame of mGHS-R; aequorin biolumenescence assay
# Experimental: The mouse isoform of the previously identified GHS-R was cloned from two genomic DNA libraries for the generation of a GHS-R knock-out mouse.
# The cells were harvested, washed once in ECB medium and resuspended to 500,000 cells/ml. One hundred (100) […] of cell suspension (corresponding to 5×10^4 cells) was then injected into each well of a 96-well microtiter test plate, and the integrated light emission was recorded over 30 seconds, in 0.5 second units. Twenty (20) μl of lysis buffer (0.1% final Triton X-100 concentration) was then injected and the integrated light emission recorded over 10 seconds, in 0.5 second units. The “fractional response” values for each well were calculated by taking the ratio of the integrated response to the initial challenge to the total integrated luminescence including the Triton X-100 lysis response. Data were analyzed using GraphPad Prism software V.2.0 (GraphPad Software, San Diego, Calif.).
# T1 sequence (Q99P50 whole entry): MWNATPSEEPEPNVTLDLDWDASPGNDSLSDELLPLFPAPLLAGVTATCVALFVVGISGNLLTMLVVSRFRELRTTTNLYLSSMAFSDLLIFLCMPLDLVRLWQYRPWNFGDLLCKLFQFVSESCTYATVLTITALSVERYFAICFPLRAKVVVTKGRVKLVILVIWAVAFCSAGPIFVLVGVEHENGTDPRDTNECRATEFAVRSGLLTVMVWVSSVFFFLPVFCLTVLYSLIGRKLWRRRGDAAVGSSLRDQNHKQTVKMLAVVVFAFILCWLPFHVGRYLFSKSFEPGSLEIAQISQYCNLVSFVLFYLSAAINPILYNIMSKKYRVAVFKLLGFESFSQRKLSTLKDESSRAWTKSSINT
row,functional activation of mGHS-R,Molecule
1,functionally activated,GHRP-6
2,functionally activated,CC(C)(N)C(=O)N[C@H](COCc1ccccc1)C(=O)N1CCC2(CC1)CN(S(C)(=O)=O)c1ccccc12 [MK-0677]
